Assay: xn = mol fraction of the nth substance listed, in the solute-free solvent

COC(=O)C1=C(C)NC(C)=C(C(=O)OCC(C)C)C1c1ccccc1[N+](=O)[O-] (stereo unspecified) + CC(C)O + O
solubility (g/100 g solution)
Conditions | 278.15 K | 283.15 K | 288.15 K | 293.15 K | 298.15 K | 303.15 K | 308.15 K | 313.15 K | 318.15 K
x2 = 0.06974 | 0.651 | 0.819 | 1.02 | 1.25 | 1.49 | 1.76 | 2.04 | 2.35 | 2.71
x2 = 0.1666 | 1.78 | 2.22 | 2.67 | 3.18 | 3.8 | 4.49 | 5.28 | 6.22 | 7.31
x2 = 0.3103 | 2.4 | 2.84 | 3.46 | 4 | 4.73 | 5.54 | 6.37 | 7.36 | 8.44
x2 = 0.5454 | 3.18 | 3.82 | 4.5 | 5.27 | 6.2 | 7.21 | 8.34 | 9.68 | 11.1

O=C(CC(=O)c1ccccc1)c1ccccc1 + CC(C)O + O
solubility (g/100 g solution)
Conditions | 278.15 K | 283.15 K | 288.15 K | 293.15 K | 298.15 K | 303.15 K | 308.15 K | 313.15 K | 318.15 K
x2 = 0.2 | 0.0987 | 0.114 | 0.14 | 0.185 | 0.222 | 0.277 | 0.338 | 0.422 | 0.528
x2 = 0.4 | 0.264 | 0.353 | 0.459 | 0.618 | 0.711 | 1.05 | 1.26 | 1.73 | 4.77
x2 = 0.6 | 0.61 | 0.936 | 1.23 | 1.34 | 1.47 | 1.91 | 2.36 | 3.27 | 4.94
x2 = 0.8 | 0.977 | 1.43 | 1.48 | 2.1 | 2.32 | 2.93 | 3.69 | 4.5 | 7.02

O=c1[nH]cc(F)c(=O)[nH]1 + CCCO + C1CCOC1
solubility (g/100 g solution)
Conditions | 283.15 K | 288.15 K | 293.15 K | 298.15 K | 303.15 K | 308.15 K | 313.15 K | 318.15 K | 323.15 K
x2 = 0.2307 | 0.148 | 0.169 | 0.195 | 0.226 | 0.263 | 0.313 | 0.373 | 0.452 | 0.536
x2 = 0.4444 | 0.17 | 0.196 | 0.225 | 0.258 | 0.299 | 0.351 | 0.42 | 0.496 | 0.588
x2 = 0.6428 | 0.201 | 0.229 | 0.258 | 0.297 | 0.34 | 0.397 | 0.467 | 0.543 | 0.625
x2 = 0.8276 | 0.228 | 0.263 | 0.298 | 0.34 | 0.393 | 0.457 | 0.539 | 0.651 | 0.763

COC(=O)C1=C(C)NC(C)=C(C(=O)OCC(C)C)C1c1ccccc1[N+](=O)[O-] (stereo unspecified) + CCCO + O
solubility (g/100 g solution)
Conditions | 278.15 K | 283.15 K | 288.15 K | 293.15 K | 298.15 K | 303.15 K | 308.15 K | 313.15 K | 318.15 K
x2 = 0.03225 | 0.131 | 0.174 | 0.219 | 0.268 | 0.346 | 0.422 | 0.526 | 0.638 | 0.78
x2 = 0.06974 | 0.532 | 0.647 | 0.806 | 0.96 | 1.16 | 1.37 | 1.62 | 1.92 | 2.23
x2 = 0.1139 | 0.997 | 1.25 | 1.49 | 1.81 | 2.21 | 2.6 | 3.12 | 3.63 | 4.27
x2 = 0.1666 | 1.41 | 1.75 | 2.12 | 2.56 | 3.1 | 3.6 | 4.37 | 5.07 | 5.97
x2 = 0.2307 | 1.69 | 2.05 | 2.52 | 3.08 | 3.7 | 4.42 | 5.22 | 6.16 | 7.24
x2 = 0.3103 | 2.02 | 2.49 | 2.99 | 3.59 | 4.3 | 5.12 | 6.03 | 7.01 | 8.15
x2 = 0.4117 | 2.29 | 2.82 | 3.37 | 4.11 | 4.82 | 5.73 | 6.73 | 7.81 | 9.08
x2 = 0.5454 | 2.47 | 3.06 | 3.68 | 4.45 | 5.28 | 6.23 | 7.23 | 8.39 | 9.79
x2 = 0.7297 | 2.47 | 3.01 | 3.69 | 4.38 | 5.22 | 6.28 | 7.42 | 8.7 | 10

O=[N+]([O-])c1cc[nH]n1 + CCCO + O
solubility (g/100 g solution)
Conditions | 283.15 K | 288.15 K | 293.15 K | 298.15 K | 303.15 K | 308.15 K | 313.15 K | 318.15 K | 323.15 K
x2 = 0.03225 | 0.274 | 0.349 | 0.477 | 0.616 | 0.783 | 1.04 | 1.33 | 1.86 | 2.35
x2 = 0.06974 | 0.307 | 0.377 | 0.489 | – | 0.772 | 1.01 | 1.29 | 1.68 | 2.18
x2 = 0.1139 | 0.626 | 0.769 | 0.945 | 1.16 | 1.45 | 1.78 | 2.31 | 2.95 | 3.78
x2 = 0.1666 | 0.964 | 1.19 | 1.43 | 1.76 | 2.13 | 2.64 | 3.29 | 4.2 | 5.32
x2 = 0.2307 | 1.35 | 1.63 | 1.97 | 2.36 | 2.87 | 3.48 | 4.23 | 5.37 | 6.75
x2 = 0.3103 | 1.73 | 2.03 | 2.41 | 2.87 | 3.44 | 4.09 | 4.96 | 6.34 | 7.73
x2 = 0.4117 | 2.08 | 2.44 | 2.82 | 3.32 | 3.87 | 4.69 | 5.64 | 6.61 | 8.31
x2 = 0.5454 | 2.49 | 2.85 | 3.25 | 3.76 | 4.35 | 5.08 | 6.07 | 7.31 | 8.56
x2 = 0.7297 | 2.69 | 3.11 | 3.53 | 4 | 4.54 | 5.23 | 6.03 | 7.19 | 8.45

Cc1ccc(Nc2nccc(N(C)c3ccc4c(C)n(C)nc4c3)n2)cc1S(N)(=O)=O + CCO + CC#N
solubility (g/100 g solution)
Conditions | 288.15 K | 293.15 K | 298.15 K | 303.15 K | 308.15 K | 313.15 K | 318.15 K | 323.15 K | 328.15 K
x2 = 0.1822 | 0.0124 | 0.029 | 0.0444 | 0.063 | 0.0838 | 0.104 | 0.125 | 0.149 | 0.177
x2 = 0.3727 | 0.026 | 0.0514 | 0.0739 | 0.101 | 0.129 | 0.157 | 0.187 | 0.22 | 0.258
x2 = 0.572 | 0.0528 | 0.0704 | 0.0887 | 0.11 | 0.133 | 0.16 | 0.189 | 0.221 | 0.256
x2 = 0.7809 | 0.0195 | 0.035 | 0.0514 | 0.0677 | 0.086 | 0.104 | 0.123 | 0.145 | 0.17

CC1(C)SC2C(NC(=O)C(NC(=O)N3CCNC3=O)c3ccccc3)C(=O)N2C1C(=O)O (stereo unspecified) + CCO + CC(C)O
solubility (g/100 g solution)
Conditions | 278.15 K | 283.15 K | 288.15 K | 293.15 K | 298.15 K | 303.15 K | 308.15 K | 313.15 K | 318.15 K | 323.15 K
x2 = 0.101 | 0.0833 | 0.0951 | 0.122 | 0.14 | 0.179 | 0.215 | 0.264 | 0.329 | 0.405 | 0.525
x2 = 0.2 | 0.0893 | 0.101 | 0.129 | 0.153 | 0.191 | 0.238 | 0.294 | 0.368 | 0.449 | 0.59
x2 = 0.301 | 0.119 | 0.135 | 0.164 | 0.208 | 0.248 | 0.287 | 0.369 | 0.426 | 0.528 | 0.687
x2 = 0.401 | 0.13 | 0.155 | 0.19 | 0.238 | 0.281 | 0.339 | 0.415 | 0.511 | 0.63 | 0.773
x2 = 0.5 | 0.154 | 0.182 | 0.223 | 0.279 | 0.345 | 0.399 | 0.484 | 0.636 | 0.78 | 0.991
x2 = 0.602 | 0.197 | 0.227 | 0.275 | 0.345 | 0.43 | 0.537 | 0.646 | 0.789 | 0.974 | 1.25
x2 = 0.703 | 0.268 | 0.302 | 0.368 | 0.464 | 0.539 | 0.677 | 0.857 | 1.05 | 1.29 | 1.61
x2 = 0.8 | 0.37 | 0.45 | 0.53 | 0.623 | 0.718 | 0.882 | 1.15 | 1.38 | 1.67 | 2.05
x2 = 0.9 | 0.54 | 0.618 | 0.748 | 0.927 | 1.11 | 1.35 | 1.69 | 2.01 | 2.39 | 2.92

CC(=O)Nc1ccc(OC(=O)c2ccccc2OC(C)=O)cc1 + CCO + O
solubility (g/100 g solution)
Conditions | 278.15 K | 283.15 K | 288.15 K | 293.15 K | 298.15 K | 303.15 K | 308.15 K | 313.15 K | 318.15 K
x2 = 0.04165 | 0.00299 | 0.00439 | 0.00634 | 0.00913 | 0.0133 | 0.0185 | 0.0258 | 0.0351 | 0.0474
x2 = 0.08908 | 0.00839 | 0.0122 | 0.0171 | 0.0242 | 0.0339 | 0.0464 | 0.0629 | 0.0839 | 0.112
x2 = 0.1436 | 0.0202 | 0.0284 | 0.0401 | 0.0539 | 0.0744 | 0.0995 | 0.133 | 0.175 | 0.232
x2 = 0.2068 | 0.037 | 0.0513 | 0.0699 | 0.0951 | 0.127 | 0.166 | 0.221 | 0.283 | 0.366
x2 = 0.2812 | 0.0604 | 0.0826 | 0.111 | 0.146 | 0.19 | 0.252 | 0.322 | 0.409 | 0.514
x2 = 0.3698 | 0.082 | 0.109 | 0.148 | 0.197 | 0.255 | 0.33 | 0.424 | 0.542 | 0.69
x2 = 0.4772 | 0.108 | 0.144 | 0.193 | 0.254 | 0.327 | 0.418 | 0.536 | 0.684 | 0.863
x2 = 0.6101 | 0.134 | 0.178 | 0.236 | 0.306 | 0.396 | 0.513 | 0.661 | 0.829 | 1.04
x2 = 0.7788 | 0.157 | 0.206 | 0.273 | 0.356 | 0.458 | 0.586 | 0.741 | 0.936 | 1.18
